Literature values in US20110206661A1, “TRIMETHOXYPHENYL INHIBITORS OF TYROSINE KINASE” (AUSPEX PHARMACEUTICALS, INC., priority 2010, published 2011).

Details: human plasma after oral administration of fostamatinib

SMILES: COc1cc(Nc2ncc(F)c(Nc3ccc4c(n3)N(COP(=O)(O)O)C(=O)C(C)(C)O4)n2)cc(OC)c1OC [Fostamatinib, 6-[[5-fluoro-2-[(3,4,5-trimethoxyphenyl)amino]-4-pyrimidinyl]amino]-2,2-dimethyl-4-[(phosphonooxy)methyl]-2H-pyrido[3,2-b]-1,4-oxazin-3(4H)-one]
- drug-related compound observed in human plasma: only small amounts
